Test results from patent US20230053540A1, “TREATMENT OF LIVER INJURY” (Massachusetts Institute of Technology, priority 2019, published 2023).

System: hepatocytes
Assay: Seq-Well scRNA-Seq of hepatocytes after APAP overdose (signature scores, DEG vs untreated)
Assay type: in vivo, mouse
[1] = A48 (48 h post-APAP) vs other clusters, Wilcox

## CC(=O)Nc1ccc(O)cc1 [APAP, acetaminophen]
A24 vs untreated (UT)
  avg_logFC Ssr3: 0.5218
  avg_logFC Stard4: 0.3515
  avg_logFC Steap4: 0.476
  avg_logFC Tmed7: 0.3868
  avg_logFC Tmem30a: 0.3328
  avg_logFC Tmem205: −0.4721
  avg_logFC Tram1: 0.4111
  avg_logFC Trp53inp1: 0.368
  avg_logFC Ubc: −0.3705
  avg_logFC Ugt2a3: −0.3334
  avg_logFC Ugt2b1: −0.2895
  avg_logFC Ugt2b5: −0.5765
  avg_logFC Ugt2b36: −0.3293
  avg_logFC Uqcrq: −0.5959
  avg_logFC Uso1: 0.3881
  avg_logFC Usp4: 0.3247
  avg_logFC Usp9x: 0.4076
  avg_logFC Zfp683: −0.4214
  avg_logFC mmu-mir-6236: 0.7875
  avg_logFC mt-Atp6: −0.5737
  avg_logFC mt-Co1: −1.433
  avg_logFC mt-Co2: −1.397
  avg_logFC mt-Co3: −1.167
  avg_logFC mt-Cytb: −1.571
  avg_logFC mt-Nd1: −1.42
  avg_logFC mt-Nd2: −1.242
  avg_logFC mt-Nd4: −1.957
  avg_logFC mt-Nd5: −1.384
  avg_logFC mt-Nd6: −0.4779
  avg_logFC mt-Rnr1: −0.4562
  avg_logFC mt-Rnr2: −0.7783
  avg_logFC mt-Tm: 0.2847
  avg_logFC mt-Tq: 0.2879
  avg_logFC n-R5-8s1: 1.253
[1]
  avg_logFC Abcb4: 0.4425
  avg_logFC Abcd2: 0.2813
  avg_logFC Abhd14b: 0.4059
  avg_logFC Acad11: 0.3851
  avg_logFC Agt: 0.5795
  avg_logFC Ahcy: 0.34
  avg_logFC Ahsg: 0.3592
  avg_logFC Aldh9a1: 0.3826
  avg_logFC Aldob: 0.4375
  avg_logFC Ambp: 0.286
  avg_logFC Amy1: 0.4216
  avg_logFC Angptl3: 0.6111
  avg_logFC Apoa5: 0.4484
  avg_logFC Apoc2: 0.8639
  avg_logFC Apoc3: 0.407
  avg_logFC Apoe: 0.5049
  avg_logFC Apoh: 0.4628
  avg_logFC Atp5b: 0.3281
  avg_logFC Atp5h: 0.5978
  avg_logFC Bfar: 0.308
  avg_logFC Bnip3: 0.462
  avg_logFC Cdo1: 0.3971
  avg_logFC Cebpb: 0.3684
  avg_logFC Ces1b: 0.4829
  avg_logFC Ces1c: 0.5488
  avg_logFC Chchd10: 0.7517
  avg_logFC Cox5a: 0.4197
  avg_logFC Cox8a: 0.552
  avg_logFC Cp: 0.4274
  avg_logFC Cyp4a10: 0.9326
  avg_logFC Cyp4a14: 1.281
  avg_logFC Dbp: 0.2896
  avg_logFC Ddb1: 0.3544
  avg_logFC Decr1: 0.5669
  avg_logFC Decr2: 0.4129
  avg_logFC Ech1: 0.418
  avg_logFC Echs1: 0.4649
  avg_logFC Ephx2: 0.3869
  avg_logFC F2: 0.3952
  avg_logFC F10: 0.3927
  avg_logFC F12: 0.388
  avg_logFC Fah: 0.3913
  avg_logFC Fcgrt: 0.4084
  avg_logFC Fkbp5: 0.2572
  avg_logFC Fth1: 0.375
  avg_logFC Gabarap: 0.4014
  avg_logFC Gc: 0.2979
  avg_logFC Gltscr2: 0.3432
  avg_logFC Gm6484: 0.4108
  avg_logFC Gm23935: 0.4738
  avg_logFC Grn: 0.431
  avg_logFC Gstt3: 0.3384
  avg_logFC Gys2: 0.4231
  avg_logFC Hdac11: 0.3557
  avg_logFC Herpud1: 0.6044
  avg_logFC Hmgcl: 0.5501
  avg_logFC Hmgcs2: 0.7687
  avg_logFC Hpx: 0.3851
  avg_logFC Hrg: 0.5316
  avg_logFC Hsd17b13: 0.6221
  avg_logFC Hspa8: 0.4107
  avg_logFC Khk: 0.5202
  avg_logFC Lcat: 0.5053
  avg_logFC Lims2: 0.3761
  avg_logFC Lpin1: 0.515
  avg_logFC Mat1a: 0.7753
  avg_logFC Mfsd2a: 0.6614
